Measured values: PMC5201331, “Subchronic Toxicities of HZ1006, a Hydroxamate-Based Histone Deacetylase Inhibitor, in Beagle Dogs and Sprague-Dawley Rats” (International Journal of Environmental Research and Public …, 2016)

Key:
SD rats [1] = experiment: Subchronic toxicity test in SD rats: overall (NOAEL, urinalysis, bone marrow, histopathology); format: in vivo, Sprague-Dawley (SD) rats; settings: daily oral administration, 28 days
Description: (§1) The rats that were judged suitable for the subchronic toxicity study were randomly divided into four groups (10 rats/sex/group). The rats received the test sample by gavage once daily for 28 days. HZ1006 was administered to the rats at doses of 120, 60, 20 and 0 (control) mg/kg, and the dosage volume was 5 mL/kg. Half of the 80 rats (half male and half female) were selected randomly according to body weight and dissected at d28. The remaining rats were dissected at d42.
(§2) A Micro AUTION MA-4260 Autoanalyzer from Arkray Global Business, Inc. (kyoto, Japan), was used to analyze the animal urine samples. Parameters such as pH, specific gravity, nitrites, leukocytes, glucose, protein, urobilinogen, ketones, occult blood, bilirubin, and hemoglobin were tested.
(§3) Bone marrow samples were obtained according to the methods reported previously. We classified the bone marrow cells by immersion objective. […]

[2] = as above; format: in vivo, Sprague-Dawley (SD) rats; settings: both sexes, Sprague-Dawley, rat, in vivo, daily oral administration, read-out: NOAEL (No Observed Adverse Effect Level)
Description: as §1, §2, §3

Beagle dogs [3] = experiment: Subchronic toxicity test in Beagle dogs: histopathology; format: in vivo; settings: after 28 days
Description: (§4) HZ1006 was administered orally to dogs (four/sex/group) at doses of 80, 40, 20, 5 and 0 (control) mg/kg/day, and the dosage volume was 2 mL/kg. The dogs received test doses with the exact amounts on a weekly basis based on current body weights. […] The other dogs in the above groups were dissected on the planned days. For the other groups, half of the dogs were anatomized on d28 and the remaining half on d42.
After euthanasia, the following organs or tissues were isolated from the dogs and rats: skin, abnormal lesions, spleen, mammary glands, jejunum, pancreas, ileum, duodenum, stomach, colon, cecum, lymph nodes, mesenteric salivary glands, liver, submandibular lymph nodes, thymus, sternum, lungs, heart, esophagus, trachea, tongue, thyroid with parathyroid gland, sciatic nerve, aorta, femurs, skeletal muscle, pituitary gland, brain, kidneys, eyes, urinary bladder, adrenal glands, uterus, ovaries, testes, epididymis and prostate. The weights of the animal organs, such as the liver, spleen, heart, thymus, brain, lungs, adrenal glands, kidneys, uterus, ovaries, epididymis and testes, were tested using an electronic balance. The organs or tissues were fixed using 10% neutral buffered formalin and were then gradient dehydrated, embedded, sectioned, and stained with routine hematoxylin-eosin prior to histopathological observations.

SD rats [4] = experiment: Subchronic toxicity test in SD rats: hematology; format: in vivo, Sprague-Dawley (SD) rats; settings: for APTT / FIB / Lym / Neu / WBC: female rats; for RET: male rats
Description: The rats that were judged suitable for the subchronic toxicity study were randomly divided into four groups (10 rats/sex/group). The rats received the test sample by gavage once daily for 28 days. HZ1006 was administered to the rats at doses of 120, 60, 20 and 0 (control) mg/kg, and the dosage volume was 5 mL/kg. Half of the 80 rats (half male and half female) were selected randomly according to body weight and dissected at d28. The remaining rats were dissected at […]. The following indexes were examined for the dogs used in the study, twice during the pre-dosage period and on d14, d28 and […]. The following parameters were evaluated on d28 and […] for the rats in the study: Blood samples of the animals were collected in tubes containing ethylenediamine tetraacetic acid (EDTA) and tested using an ADVIA2120 Hematology Autoanalyzer (Bayer, Leverkusen, Germany). The following indexes were examined: hemoglobin concentration (Hb), red blood cell count (RBC),mean corpuscular volume (MCV), hematocrit (HCT), mean corpuscular hemoglobin concentration (MCHC), mean corpuscular hemoglobin (MCH), white blood cell count (WBC), platelet count (Plt), WBC differential counts [neutrophilcyte (Neu), eosinophilic granulocyte (Eos), basophilic leukocyte (Bas), lymphocyte (Lym), and monocyte (Mon)] and reticulocytes (Ret). The serum coagulation times of the blood samples (1.8-mL samples were mixed with 0.2 mL sodium citrate), including prothrombin time (PT), fibrinogen (FIB), activated partial thromboplastin time (APTT), and thrombin time (TT), were tested using an MC10 plus Blood Coagulation Analyzer from Shanghai San Jose Medical Products Co., Ltd. (Shanghai, China).

Beagle dogs [5] = experiment: Subchronic toxicity test in Beagle dogs: clinical observation; format: in vivo; settings: for Frequencies of Diarrhea / Frequencies of Vomiting: beagle, dog, in vivo, po, 42 days
Description: as §4
Clinical symptoms and mortality were examined at least twice daily during the 42-day period, which included any changes in reaction to treatment, behavior, illness, food consumption, and body weight. Breathing rates, rectal temperature and pupil changes in the Beagle dogs were assessed once every 2 weeks.

[6] = 20 mg/kg oral daily, d42 (recovery)
[7] = 60 mg/kg oral daily, d42 (recovery)
[8] = 120 mg/kg oral daily, d42 (recovery)

CCCCCCCNc1cc(/C=C/C(=O)NO)ccc1OCCN(CC)CC [HZ1006]
minimum toxic dose (SD rats [1]): 120 mg/kg
NOAEL at 28 days [2]: 60 mg/kg
Bone marrow of sternum: decrease in hematopoietic cell numbers (incidence/number examined) (Beagle dogs [3]; 5 mg/kg/day oral): 0/4
Epididymis: lack of mature sperm and secretions in the epididymal lumen as well as decrease of epididymal lumen size (incidence/number examined) (Beagle dogs [3]; 5 mg/kg/day oral): 0/2
Lung: large confluent bronchopneumonia (incidence/number examined) (Beagle dogs [3]; 5 mg/kg/day oral): 0/4
Prostate: reduction in numbers and size, thinner epithelium, narrowing of the glandular cavity of prostatic acini (incidence/number examined) (Beagle dogs [3]; 5 mg/kg/day oral): 0/2
Testis: Reduction in numbers and types of spermatogenic cells (incidence/number examined) (Beagle dogs [3]; 5 mg/kg/day oral): 0/2
Epididymis: lack of mature sperm and secretions in the epididymal lumen as well as decrease of epididymal lumen size (incidence/number examined) (Beagle dogs [3]; 20 mg/kg/day oral): 0/2
Lung: large confluent bronchopneumonia (incidence/number examined) (Beagle dogs [3]; 20 mg/kg/day oral): 0/4
Prostate: reduction in numbers and size, thinner epithelium, narrowing of the glandular cavity of prostatic acini (incidence/number examined) (Beagle dogs [3]; 20 mg/kg/day oral): 0/2
Testis: Reduction in numbers and types of spermatogenic cells (incidence/number examined) (Beagle dogs [3]; 20 mg/kg/day oral): 0/2
Bone marrow of sternum: decrease in hematopoietic cell numbers (incidence/number examined) (Beagle dogs [3]; 40 mg/kg/day oral): 2/4
Epididymis: lack of mature sperm and secretions in the epididymal lumen as well as decrease of epididymal lumen size (incidence/number examined) (Beagle dogs [3]; 40 mg/kg/day oral): 2/2
Lung: large confluent bronchopneumonia (incidence/number examined) (Beagle dogs [3]; 40 mg/kg/day oral): 2/4
Prostate: reduction in numbers and size, thinner epithelium, narrowing of the glandular cavity of prostatic acini (incidence/number examined) (Beagle dogs [3]; 40 mg/kg/day oral): 2/2
Testis: Reduction in numbers and types of spermatogenic cells (incidence/number examined) (Beagle dogs [3]; 40 mg/kg/day oral): 2/2
Bone marrow of sternum: decrease in hematopoietic cell numbers (incidence/number examined) (Beagle dogs [3]; 80 mg/kg/day oral): 3/4
Epididymis: lack of mature sperm and secretions in the epididymal lumen as well as decrease of epididymal lumen size (incidence/number examined) (Beagle dogs [3]; 80 mg/kg/day oral): 2/2
Lung: large confluent bronchopneumonia (incidence/number examined) (Beagle dogs [3]; 80 mg/kg/day oral): 2/4
Prostate: reduction in numbers and size, thinner epithelium, narrowing of the glandular cavity of prostatic acini (incidence/number examined) (Beagle dogs [3]; 80 mg/kg/day oral): 2/2
Testis: Reduction in numbers and types of spermatogenic cells (incidence/number examined) (Beagle dogs [3]; 80 mg/kg/day oral): 2/2
APTT (SD rats [4]; 20 mg/kg oral daily, d28): 24.3 ± 3.5 s
FIB (SD rats [4]; 20 mg/kg oral daily, d28): 1.87 ± 0.09 g/L
Lym (SD rats [4]; 20 mg/kg oral daily, d28): 88.38 ± 1.68%
Neu (SD rats [4]; 20 mg/kg oral daily, d28): 8.70 ± 1.72%
WBC (SD rats [4]; 20 mg/kg oral daily, d28): 3.17 ± 1.23 ×10^9·L^−1
APTT (SD rats [4]; [6]): 22.2 ± 3.0 s
FIB (SD rats [4]; [6]): 1.62 ± 0.17 g/L
Lym (SD rats [4]; [6]): 85.40 ± 3.85%
Neu (SD rats [4]; [6]): 11.58 ± 4.04%
WBC (SD rats [4]; [6]): 2.68 ± 0.63 ×10^9·L^−1
APTT (SD rats [4]; 60 mg/kg oral daily, d28): 23.0 ± 2.4 s
FIB (SD rats [4]; 60 mg/kg oral daily, d28): 1.89 ± 0.06 g/L
Lym (SD rats [4]; 60 mg/kg oral daily, d28): 84.70 ± 5.45%
Neu (SD rats [4]; 60 mg/kg oral daily, d28): 12.08 ± 4.77%
WBC (SD rats [4]; 60 mg/kg oral daily, d28): 2.82 ± 0.60 ×10^9·L^−1
APTT (SD rats [4]; [7]): 25.2 ± 1.3 s
FIB (SD rats [4]; [7]): 1.62 ± 0.18 g/L
Lym (SD rats [4]; [7]): 85.36 ± 6.93%
Neu (SD rats [4]; [7]): 12.06 ± 6.70%
WBC (SD rats [4]; [7]): 2.53 ± 0.60 ×10^9·L^−1
APTT (SD rats [4]; 120 mg/kg oral daily, d28): 22.6 ± 2.4 s
FIB (SD rats [4]; 120 mg/kg oral daily, d28): 2.01 ± 0.40 g/L
Lym (SD rats [4]; 120 mg/kg oral daily, d28): 77.22 ± 8.78%
Neu (SD rats [4]; 120 mg/kg oral daily, d28): 19.28 ± 8.26%
WBC (SD rats [4]; 120 mg/kg oral daily, d28): 3.95 ± 0.77 ×10^9·L^−1
APTT (SD rats [4]; [8]): 25.2 ± 1.6 s
FIB (SD rats [4]; [8]): 1.85 ± 0.12 g/L
Lym (SD rats [4]; [8]): 85.88 ± 1.85%
Neu (SD rats [4]; [8]): 10.76 ± 1.81%
WBC (SD rats [4]; [8]): 3.00 ± 0.43 ×10^9·L^−1
RET (SD rats [4]; 20 mg/kg oral daily, d28): 1.88 ± 0.32%
RET (SD rats [4]; [6]): 1.92 ± 0.31%
RET (SD rats [4]; 60 mg/kg oral daily, d28): 1.43 ± 0.22%
RET (SD rats [4]; [7]): 1.82 ± 0.43%
RET (SD rats [4]; 120 mg/kg oral daily, d28): 2.04 ± 0.31 %
RET (SD rats [4]; [8]): 2.16 ± 0.22%
mortality (Beagle dogs [5]; dogs, 5-80 mg/kg/day oral, ♀6 d8 and ♀8 d10 (80 mg/kg), ♀28 d16 (40 mg/kg)): Three dogs died during the study
Frequencies of Diarrhea (Beagle dogs [5]; female, 5 mg/kg/day): 0 days
Frequencies of Vomiting (Beagle dogs [5]; female, 5 mg/kg/day): 0 days
Frequencies of Diarrhea (Beagle dogs [5]; female, 20 mg/kg/day): 0 days
Frequencies of Diarrhea (Beagle dogs [5]; male, 5 mg/kg/day): 0 days
Frequencies of Vomiting (Beagle dogs [5]; male, 5 mg/kg/day): 0 days
Frequencies of Diarrhea (Beagle dogs [5]; male, 20 mg/kg/day): 0 days
